Measurements reported in patent publication US11285135B2 (AMGEN INC., priority 2016, dated 2022).
Like-named read-outs stand apart in the source and are kept apart here.

How the values were obtained:
[1] = target: GDP-bound protein (aa 1-169), containing both G12C and C118A amino acid substitutions (Homo sapiens, UniProt P01116, C118A/G12C); test: Coupled Nucleotide Exchange Assay (SOS-mediated nucleotide exchange, AlphaScreen); type: biochemical; settings: 2 hours compound pre-incubation
Summary of the method: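 AlphaScreen signal after SOS (aa 564-1049)/GTP-driven exchange (1 h) on GDP-loaded His-[…] G12C/C118A (aa 1-169), following a 2 h compound pre-incubation in HEPES pH 7.4 buffer with 10 mM MgCl2 and 0.01% Triton X-100. IC50s fitted by 4-parameter logistic model.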

[2] = system: Phosphorylation of ERK½ in A549 cells; test: Phospho-ERK½ MSD Assay in A549 cells; type: cell-based; settings: 4 hours compound treatment, 10 ng/mL EGF for 10 min, read-out: p-ERK IC50 (A549)
Experimental: (§1) Phospho-ERK½ MSD Assay: MIA PaCa-2 (ATCC® CRL-1420™) and A549 (ATCC® CCL-185™) cells were cultured in RPMI 1640 Medium (ThermoFisher Scientific 11875093) containing 10% fetal bovine serum (ThermoFisher Scientific 16000044) and 1× penicillin-streptomycin-glutamine (ThermoFisher Scientific 10378016). Sixteen hours prior to compound treatment, MIA PaCa-2 or A549 cells were seeded in 96-well cell culture plates at a density of 25,000 cells/well and incubated at 37° C., 5% CO2. A compound dose-response titration was diluted in growth media, added to appropriate wells of a cell culture plate, and then incubated at 37° C., 5% CO2 for 4 hours. Following compound treatment, cells were stimulated with 10 ng/mL EGF (Roche 11376454001) for 10 min, washed with ice-cold Dulbecco's phosphate-buffered saline, no Ca^2+ or Mg^2+ (ThermoFisher Scientific 14190144), and then lysed in RIPA buffer (50 mM Tris-HCl pH 7.5, 1% Igepal, 0.5% sodium deoxycholate, 150 mM NaCl, and 0.5% sodium dodecyl sulfate) containing protease inhibitors (Roche 4693132001) and phosphatase inhibitors (Roche 4906837001). Cell lysates were stored frozen at −80° C. overnight. Phosphorylation of ERK½ in compound-treated lysates was assayed using Phospho-ERK½ Whole Cell Lysate kits (Meso Scale Discovery K151DWD) according to the manufacturer's protocol. Assay plates were read on a Meso Scale Discovery Sector Imager 6000, and data were analyzed using a 4-parameter logistic model to calculate IC50 values.

[3] = system: Phosphorylation of ERK½ in MIA PaCa-2 cells; test: Phospho-ERK½ MSD Assay in MIA PaCa-2 cells; type: cell-based; settings: 4 hours compound treatment, 10 ng/mL EGF for 10 min, read-out: p-ERK IC50 (MIA PaCa-2)
Experimental: as §1

[4] = Homo sapiens, MIA PaCa-2, MIA PaCa-2 cells

GDP-bound protein (aa 1-169), containing both G12C and C118A amino acid substitutions, sequence (P01116 1-169 isoform P01116-2 G12C/C118A): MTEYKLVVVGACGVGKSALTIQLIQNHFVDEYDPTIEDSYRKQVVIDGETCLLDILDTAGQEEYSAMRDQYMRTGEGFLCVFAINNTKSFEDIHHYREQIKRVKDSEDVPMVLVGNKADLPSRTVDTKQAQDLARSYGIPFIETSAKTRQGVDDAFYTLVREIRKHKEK

Compound	Coupled exchange IC50 [1]	IC50 ([2]; Homo sapiens, A549, A549 cells)	IC50 [3, 4]	IC50 ([2]; A549 cells)	IC50 ([3]; MIA PaCa-2 cells)
C=CC(=O)N1CCN(c2snc3c(F)c(-c4c(O)cccc4F)c(Cl)cc23)C(C(F)F)C1 (racemic) [Example 2-9, 1-(4-(5-chloro-7-fluoro-6-(2-fluoro-6-hydroxyphenyl)-2,1-benzothiazol-3-yl)-3-(difluoromethyl)-1-piperazinyl)-2-propen-1-one]	301 nM	> 100000 nM	747 nM		
C=CC(=O)N1C[C@@H]2[C@H]1CCN2c1snc2c(F)c(-c3cc(O)cc4ccccc34)c(Cl)cc12 (racemic) [Example 5-8, 1-(cis-2-(5-Chloro-7-fluoro-6-(3-hydroxy-1-naphthalenyl)-2,1-benzothiazol-3-yl)-2,6-diazabicyclo[3.2.0]heptan-6-yl)-2-propen-1-one]	433 nM	> 33300 nM	1200 nM		
C=CC(=O)N1CCN(c2snc3c(F)c(-c4cc(O)cc5ccccc45)c(Cl)cc23)[C@@H](C)C1 (single isomer, unassigned) [Example 1-19-1]	115 nM	> 100000 nM	368 nM		
C=CC(=O)N1CCN(c2snc3c(F)c(-c4cc(O)cc5ccccc45)c(Cl)cc23)[C@@H](C)C1 (single isomer, unassigned) [Example 1-19-2]	5100 nM			> 100000 nM	> 100000 nM
C=CC(=O)N1CCN(c2snc3nc(-c4cc(O)cc5ccccc45)c(Cl)cc23)C(C)C1 (single isomer, unassigned) [Example 2-5-1, 1-((3S)-4-(5-chloro-6-(3-hydroxy-1-naphthalenyl) [1,2]thiazolo[3,4-b]pyridin-3-yl)-3-methyl-1-piperazinyl)-2-propen-1-one or 1-((3R)-4-(5-chloro-6-(3-hydroxy-1-naphthalenyl) [1,2]thiazolo[3,4-b]pyridin-3-yl)-3-methyl-1-piperazinyl)-2-propen-1-one]	308 nM			> 100000 nM	1140 nM
C=CC(=O)N1CCN(c2snc3nc(-c4cc(O)cc5ccccc45)c(Cl)cc23)C(C)C1 (single isomer, unassigned) [Example 2-5-2, 1-((3R)-4-(5-chloro-6-(3-hydroxy-1-naphthalenyl) [1,2]thiazolo[3,4-b]pyridin-3-yl)-3-methyl-1-piperazinyl)-2-propen-1-one or 1-((3S)-4-(5-ch1oro-6-(3-hydroxy-1-naphthalenyl) [1,2]thiazolo[3,4-b]pyridin-3-yl)-3-methyl-1-piperazinyl)-2-propen-1-one]	1350 nM			3700 nM	7480 nM
C=CC(=O)N1CCN(c2snc3nc(-c4c(C)ccc5[nH]ncc45)c(Cl)cc23)C(C)C1 (single isomer, unassigned) [Example 2-6-2, 1-((3R)-4-(5-chloro-6-(5-methyl-1H-indazol-4-yl)[1,2]thiazolo[3,4-b]pyridin-3-yl)-3-methyl-1-piperazinyl)-2-propen-1-one or 1-((3S)-4-(5-chloro-6-(5-methyl-1H-indazol-4-yl)[1,2]thiazolo[3,4-b]pyridin-3-yl)-3-methyl-1-piperazinyl)-2-propen-1-one]	1250 nM	3700 nM	1290 nM		
C=CC(=O)N1CCN(c2snc3c(F)c(-c4cc(O)cc5ccccc45)c(Cl)cc23)CC1 (single isomer, unassigned) [Example 3-1-1, 1-(4-(5-chloro-7-fluoro-6-(3-hydroxy-1-naphthalenyl)-2,1-benzothiazol-3-yl)-1-piperazinyl)-2-propen-1-one]	3000 nM			> 100000 nM	> 100000 nM
C=CC(=O)N1CCN(c2snc3c(F)c(-c4cc(O)cc5ccccc45)c(Cl)cc23)CC1 (single isomer, unassigned) [Example 3-1-2, 1-(4-(5-chloro-7-fluoro-6-(3-hydroxy-1-naphthalenyl)-2,1-benzothiazol-3-yl)-1-piperazinyl)-2-propen-1-one]	302 nM			> 100000 nM	2350 nM
C=CC(=O)N1CCN(c2nc(=O)n(-c3ccccc3C(C)C)c3cc(-c4c(O)cccc4F)c(Cl)cc23)CC1 (single isomer, unassigned) [Example 8-1-1, 6-chloro-7-(2-fluoro-6-hydroxyphenyl)-1-(2-(2-propanyl)phenyl)-4-(4-(2-propenoyl)-1-piperazinyl)-2(1H)-quinazolinone]	172 nM			69800 nM	46 nM
C=CC(=O)N1CCN(c2nc(=O)n(-c3ccccc3C(C)C)c3cc(-c4c(O)cccc4F)c(Cl)cc23)CC1 (single isomer, unassigned) [Example 8-1-2, 6-Chloro-7-(2-fluoro-6-hydroxyphenyl)-1-(2-(2-propanyl)phenyl)-4-(4-(2-propenoyl)-1-piperazinyl)-2(1H)-quinazolinone]	322 nM			> 100000 nM	811 nM
C=CC(=O)N1CCN(c2nc(=O)n(-c3ccccc3C(C)C)c3cc(-c4c(O)cccc4F)c(Cl)cc23)[C@@H](C)C1 (single isomer, unassigned) [Example 8-3-1]	282 nM	> 100000 nM			408 nM

Next, values leading:

Coupled exchange IC50 [1]	IC50 ([2]; Homo sapiens, A549, A549 cells)	IC50 [3, 4]	IC50 ([2]; A549 cells)	IC50 ([3]; MIA PaCa-2 cells)	Compound
299 nM	> 100000 nM	430 nM			C=CC(=O)N1CCN(c2snc3c(F)c(-c4cc(O)cc5ccccc45)c(Cl)cc23)[C@@H](C(F)F)C1 (racemic) [Example 7-1]
180 nM	> 100000 nM	222 nM			C=CC(=O)N1CCN(c2snc3c(F)c(-c4cc(O)cc5ccccc45)c(Cl)cc23)[C@@H](CF)C1 (racemic) [Example 7-2, 1-(4-(5-chloro-7-fluoro-6-(3-hydroxy-1-naphthalenyl)-2,1-benzothiazol-3-yl)-3-(fluoromethyl)-1-piperazinyl)-2-pxopen-1-one]
1730 nM	> 100000 nM	5830 nM			C=CC(=O)N1CCN(c2snc3c(F)c(-c4cc(O)cc5ccccc45)c(Cl)cc23)C(C(=O)OC)C1 (racemic) [Example 7-3, methyl 4-acryloyl-1-(5-chloro-7-fluoro-6-(3-hydroxynaphthalen-1-yl)benzo[c]isothiazol-3-yl)piperazine-2-carboxylate]
198 nM	13000 nM	23 nM			C=CC(=O)N1CCN(c2nc(=O)n(-c3ccccc3C(C)CC)c3cc(-c4cc(O)cc5ccccc45)c(Cl)cc23)CC1 (racemic) [Example 9-4, 1-(2-(2-butanyl)phenyl)-6-chloro-7-(3-hydroxy-1-naphthalenyl)-4-(4-(2-propenoyl)-1-piperazinyl)-2(1H)-quinazolinone]
129 nM	> 100000 nM	344 nM			C=CC(=O)N1CCN(c2nc(=O)n([C@H]3CCCCC3(C)C)c3nc(-c4c(O)cccc4F)c(Cl)cc23)CC1 (racemic) [Example 9-14, 6-chloro-1-((1R)-2,2-dimethylcyclohexyl)-7-(2-fluoro-6-hydroxyphenyl)-4-(4-(2-propenoyl)-1-piperazinyl)pyrido[2,3-d]pyrimidin-2(1H)-one|6-chloro-1-((1S)-2,2-dimethylcyclohexyl)-7-(2-fluoro-6-hydroxyphenyl)-4-(4-(2-propenoyl)-1-piperazinyl)pyrido[2,3-d]pyrimidin-2(1H)-one]
